pIC50, pKd: −log10 of the molar value. Entries after “also recorded” stand apart in the source; their conditions may differ.
Legend:
HIF-1α = target: T1, HIF-1α (Homo sapiens, UniProt Q16665); experiment: ChIP, HIF-1α DNA binding in cultured cells; assay type: cell-based; conditions: 10 μM, hypoxic conditions
T1 construct: endogenous in cells
Protocol: (§1) Chromatin immunoprecipation (ChIP) using antibodies raised against HIF-1α or HIF-2α was used to measure HIF DNA binding in cultured cells.
(§2) Proc Natl Acad Sci USA 106, 4260-4265 (2009) using the ChIP-IT Express Enzymatic Kit (Active Motif) according to the manufacturer's protocol. ChIP assays were carried out using normal mouse IgG (Santa Cruz Biotechnology), anti-HIF-2α mouse monoclonal antibody (Novus Biologicals), or anti-HIF-1α mouse monoclonal antibody (BD Biosciences). The precipitated genomic DNA was analyzed by qPCR using the primers for a human EPO enhancer amplicon ([…]; […]). The captured genomic DNA was measured by normalizing with that of input material and compared between sample.

HIF-2α or HIF-1α mRNA = experiment: HIF-1α and HIF-2α mRNA levels in Hep3B cells, RT-PCR; assay type: cell-based
[1] = target: HIF-2α PAS-B*/ARNT PAS-B* heterodimer (Homo sapiens, UniProt Q99814, R247E); experiment: AlphaScreen, HIF-2α PAS-B*/ARNT PAS-B* heterodimerization;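 note: GST-tagged HIF-2α PAS-B* and FLAG-tagged ARNT PAS-B* with glutathione donor and anti-FLAG acceptor beads, luminescence after 680 nm excitation, loss of signal indicating disrupted heterodimer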
HIF-2α PAS-B*/ARNT PAS-B* heterodimer, sequence (Q99814 240-350 R247E, one chain of several): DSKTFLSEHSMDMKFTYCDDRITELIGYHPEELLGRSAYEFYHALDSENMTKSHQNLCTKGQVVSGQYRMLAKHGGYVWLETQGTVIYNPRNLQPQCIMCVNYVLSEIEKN
Source text: (FIG. 8a) As shown in the cartoon schematic, interactions between GST-tagged HIF-2α (green) and FLAG-tagged ARNT (blue) PAS-B* domains recruit both donor beads (D), coated with glutathione, and acceptor beads (A), coated with anti-FLAG antibodies, to one another. Upon illumination with red (680 nm) light, donor beads will generate short-lived singlet oxygen (^1O2). Nearby (<200 nm) acceptor beads can react with ^1O2 to emit light at shorter wavelengths (top). Compounds that disrupt the complex correspondingly eliminate this signal (bottom). Compounds that non-specifically interfere with the AlphaScreen assay can be identified with a counterscreen in which the ARNT PAS-B* domain was simultaneously tagged with both the GST and FLAG tags. (FIG. 8b) The AlphaScreen signal (relative units; RU) reflecting protein-protein interactions between 25 (open triangles), 50 (open circles) or 100 (closed circles) nM HIF-2α PAS-B* increases with increasing concentrations of ARNT PAS-B*. At the highest ARNT PAS-B* concentrations, a decrease in signal reflects the hook effect. At these concentrations, protein binding to the acceptor beads has become saturated and free ARNT PAS-B* competes with the coated acceptor beads for the donor beads bound to HIF-2α PAS-B*. […] Assays were performed in triplicate and the error bars represent±SD.
Inhibition of heterodimerization of HIF-2α to HIF1β (ARNT) may be determined in an Amplified Luminescent Proximity Homogeneous Assay (AlphaScreen).
The AlphaScreen assay can be done according to the following procedures: • 1. Prepare cold binding buffer solution: 20 mM Tris-Cl (pH=7.5), 100 mM NaCl, 1 mM DTT, 0.02% Tween-20 (final concentration) and place on ice to keep temperature approximately 4° C. • 2. Prepare Protein Mix: To a 50 mL conical tube add 23 mL of cold buffer and 0.04 mL of both GST-HIF2α PASB* (100 μM) and ARNT-PASB*-Flag (100 μM). • 3. Distribute to 96 well plate: Add 60 μL of protein mix to each wells. • 4. Adding Compound: Dissolve compounds in DMSO to obtain a final concentration of 10 mM. Then create the appropriate dilutions for your particular compound in glass vials. Once all the dilutions are ready place 1 μL of compound in each well. • 5. Prepare Bead mix: In the dark room using green light only create a tube with 3.84 mL of cold buffer and 3 μL of GST Donor beads and Flag acceptor beads. • 6. Distribute Bead mix: Invert the tube a couple times before distributing 40 μL of mix to each well. • 7. Incubation: After adding beads wrap the plate in tin foil twice and remove the covered plate from dark room. Incubate the plate at room temperature while rocking gently for 4 hours. • 8. Read: After 4 hours place the uncovered plate in the plate reader. Make sure the room is relatively tree of white light when placing the plate in the machine. It is ok to have the green light on if needed. • 9. […] Flag acceptor beads should be aliquoted into small opaque tubes (20-50 μl per tube) upon arrival from the manufacturer. Place both sets of beads in 4° C. storage when not in use. • 11. Avoid expose beads to white light. • 12. Pipette beads up and down several times before adding to a tube of cold buffer solution. • 13. Amount of Beads used for Bead mix may vary from batch to batch.

EPO = EPO mRNA expression in Hep3B cells (HIF-2α marker); assay type: cell-based; conditions: 1 or 10 μM, hypoxic (1% O2) 6 or 12 hr
786-0 cells = experiment: Cell viability, ATP levels by Cell Titer Glo; assay type: cell-based, human; conditions: 24 hr, as much as 30 μM
Protocol: Assays were performed in triplicates and the error bars represent±SD.
(§3) 786-0 cells, derived from a human renal cell carcinoma, lack functional pVHL and constitutively accumulate HIF-2α under normoxic conditions. These cells also lack detectable HIF-1α expression so that HIF-dependent regulation of target genes is attributable to HIF-2α isoform.

[2] = target: T2, full length HIF-2α and ARNT (Homo sapiens, UniProt Q99814); experiment: Co-IP of HIF-2α with ARNT, nuclear extracts of hypoxic Hep3B cells; assay type: biochemical; conditions: increasing concentrations
T2 construct: heterodimerization between full length HIF-2α and ARNT polypeptides; endogenous in cells; host or cells: Hep3B (hypoxic), nuclear extracts
T2 sequence (Q99814 whole entry): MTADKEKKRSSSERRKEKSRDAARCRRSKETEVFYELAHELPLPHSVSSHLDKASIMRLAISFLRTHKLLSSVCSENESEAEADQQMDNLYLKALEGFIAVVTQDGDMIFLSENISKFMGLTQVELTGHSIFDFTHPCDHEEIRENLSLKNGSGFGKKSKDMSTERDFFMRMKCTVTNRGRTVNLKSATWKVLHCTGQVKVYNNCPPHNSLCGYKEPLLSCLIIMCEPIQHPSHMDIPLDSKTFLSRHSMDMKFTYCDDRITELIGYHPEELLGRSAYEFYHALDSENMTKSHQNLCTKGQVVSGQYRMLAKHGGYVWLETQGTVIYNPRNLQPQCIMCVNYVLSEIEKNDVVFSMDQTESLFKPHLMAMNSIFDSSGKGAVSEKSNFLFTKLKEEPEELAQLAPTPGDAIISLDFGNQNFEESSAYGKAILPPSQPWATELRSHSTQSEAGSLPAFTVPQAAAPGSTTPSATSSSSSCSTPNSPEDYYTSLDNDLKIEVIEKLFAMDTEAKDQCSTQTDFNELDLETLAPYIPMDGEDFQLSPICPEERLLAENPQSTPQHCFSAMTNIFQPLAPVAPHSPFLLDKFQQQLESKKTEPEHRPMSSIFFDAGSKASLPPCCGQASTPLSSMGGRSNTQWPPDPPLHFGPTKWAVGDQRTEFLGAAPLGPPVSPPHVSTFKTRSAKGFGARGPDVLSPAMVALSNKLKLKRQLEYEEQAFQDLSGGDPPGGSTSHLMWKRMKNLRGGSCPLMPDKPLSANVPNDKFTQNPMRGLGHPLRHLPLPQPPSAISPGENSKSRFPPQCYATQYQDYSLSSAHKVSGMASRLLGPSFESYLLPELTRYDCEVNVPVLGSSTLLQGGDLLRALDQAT
Protocol: An antibody recognizing the N-terminus of ARNT, was used to immunoprecipitate (IP) the endogenous ARNT protein from the nuclear extracts (FIG. 17 b; top panel).
Co-IP: Nuclear protein extraction and co-IP experiments were performed as reported in Semenza, G. L. Hypoxia-inducible factors: mediators of cancer progression and targets for cancer therapy. […] The following antibodies were used for immunoblot analysis: anti-HIF-1α mouse monoclonal antibody (BD Biosciences); anti-EPAS/HIF-2α mouse monoclonal antibody (Novus Biological); anti-ARNT/HIF-1β mouse monoclonal antibody (Novus Biological).

PGK1 = PGK1 mRNA expression in Hep3B cells (HIF-1α marker); assay type: cell-based; conditions: 1 or 10 μM, hypoxic (1% O2) 6 or 12 hr
HIF-1 heterodimerization = target: T3, HIF-1 heterodimerization (Homo sapiens, UniProt Q16665); experiment: Co-IP of HIF-1α with ARNT, nuclear extracts of hypoxic Hep3B cells; assay type: biochemical; conditions: increasing amounts
T3 construct: Nuclear extracts prepared from hypoxic Hep3B cells expressing ARNT, HIF-1α, and HIF-2α (input); endogenous in cells; host or cells: Hep3B (hypoxic), nuclear extracts
T3 sequence (Q16665 whole entry): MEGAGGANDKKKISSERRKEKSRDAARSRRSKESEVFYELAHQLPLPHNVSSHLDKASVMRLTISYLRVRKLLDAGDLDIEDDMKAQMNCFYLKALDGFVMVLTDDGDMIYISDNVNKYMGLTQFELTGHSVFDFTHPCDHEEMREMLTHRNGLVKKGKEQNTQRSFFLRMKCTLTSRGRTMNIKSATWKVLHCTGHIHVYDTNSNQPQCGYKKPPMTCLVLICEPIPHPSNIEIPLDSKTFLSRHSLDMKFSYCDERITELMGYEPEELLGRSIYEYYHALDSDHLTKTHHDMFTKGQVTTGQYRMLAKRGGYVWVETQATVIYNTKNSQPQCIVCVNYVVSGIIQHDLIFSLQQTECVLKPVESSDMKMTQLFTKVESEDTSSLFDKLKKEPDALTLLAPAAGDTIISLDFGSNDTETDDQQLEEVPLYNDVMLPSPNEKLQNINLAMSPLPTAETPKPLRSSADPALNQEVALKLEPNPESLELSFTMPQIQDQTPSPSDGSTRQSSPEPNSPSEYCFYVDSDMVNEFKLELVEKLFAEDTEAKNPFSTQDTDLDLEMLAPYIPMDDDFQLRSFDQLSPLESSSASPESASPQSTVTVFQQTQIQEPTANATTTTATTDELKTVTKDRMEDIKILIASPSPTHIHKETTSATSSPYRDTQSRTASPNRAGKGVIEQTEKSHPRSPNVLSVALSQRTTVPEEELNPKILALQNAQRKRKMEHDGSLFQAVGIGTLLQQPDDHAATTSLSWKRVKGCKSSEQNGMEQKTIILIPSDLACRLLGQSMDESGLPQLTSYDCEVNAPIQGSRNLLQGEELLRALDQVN
T3 sequence (P27540 2-789 partner limits assumed): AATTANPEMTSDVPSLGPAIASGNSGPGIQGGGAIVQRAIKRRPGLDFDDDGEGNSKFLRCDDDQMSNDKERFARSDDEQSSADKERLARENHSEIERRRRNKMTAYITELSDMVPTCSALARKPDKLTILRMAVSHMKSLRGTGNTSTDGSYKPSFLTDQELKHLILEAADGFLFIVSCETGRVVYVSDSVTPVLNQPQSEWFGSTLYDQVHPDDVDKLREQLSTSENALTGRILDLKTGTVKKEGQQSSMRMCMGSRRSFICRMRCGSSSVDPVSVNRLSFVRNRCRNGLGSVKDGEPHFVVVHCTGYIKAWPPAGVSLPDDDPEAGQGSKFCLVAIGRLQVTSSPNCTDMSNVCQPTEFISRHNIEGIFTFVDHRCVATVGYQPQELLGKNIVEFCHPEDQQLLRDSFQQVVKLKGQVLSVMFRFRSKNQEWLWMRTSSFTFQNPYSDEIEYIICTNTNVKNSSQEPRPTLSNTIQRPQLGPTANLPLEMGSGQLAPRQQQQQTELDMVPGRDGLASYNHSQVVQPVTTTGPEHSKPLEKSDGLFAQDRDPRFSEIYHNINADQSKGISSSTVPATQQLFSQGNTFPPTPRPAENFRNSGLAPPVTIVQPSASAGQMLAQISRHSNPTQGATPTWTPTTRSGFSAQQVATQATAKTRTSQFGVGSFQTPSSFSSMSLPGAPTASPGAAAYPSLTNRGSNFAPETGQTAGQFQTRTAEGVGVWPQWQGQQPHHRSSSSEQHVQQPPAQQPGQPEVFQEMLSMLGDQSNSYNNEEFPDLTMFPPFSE
Source text: (§4) Ensuing allosteric conformational changes propagate to the surface of the domain, weakening interactions with the ARNT PAS-B domain and disrupting heterodimerization of the full length HIF-2 transcription factor.

VEGF [3] = experiment: HIF-2 target gene (VEGF) expression in 786-0 cells, RT-PCR; assay type: cell-based, human; conditions: 18 hr
Source text: as §3

HIF-2α [4] = experiment: ChIP, HIF-2α DNA binding in cultured cells; assay type: cell-based, human; conditions: 10 μM, hypoxic conditions
Protocol: as §1, §2

HIF-1α PAS-B = HIF-1α PAS-B (Homo sapiens, UniProt Q16665); experiment: Isothermal titration calorimetry (ITC) on HIF-1α PAS-B; assay type: binding; conditions: same conditions as for HIF-2α PAS-B
HIF-1α PAS-B, sequence (Q16665 238-349): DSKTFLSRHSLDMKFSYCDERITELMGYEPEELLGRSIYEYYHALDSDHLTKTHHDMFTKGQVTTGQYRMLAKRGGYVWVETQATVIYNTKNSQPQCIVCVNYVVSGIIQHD
Source text: as §4

VEGF [5] = experiment: VEGF protein secretion by ELISA, 786-O cells; assay type: cell-based, human; conditions: about 18 hours, 0.00655-20 μM
Protocol: VEGF protein secretion was measured by ELISA following incubation of cultured 786-O cells for about eighteen (18) hours with Compund (1) (FIG. 19a) or with Compound (47) (FIG. 19b).

HIF-2α [6] = experiment: HIF-2α expression in 786-0 cells (RT-PCR, immunoblot); assay type: cell-based, human; conditions: normoxic 786-0 cells
Source text: as §3

GST-ARNT-PAS-B*-FLAG = GST-ARNT-PAS-B*-FLAG (Homo sapiens, UniProt P27540, E362R); experiment: AlphaScreen control reaction with doubly tagged protein; assay type: biochemical; conditions: single doubly tagged protein
GST-ARNT-PAS-B*-FLAG, sequence (P27540 355-470 E362R): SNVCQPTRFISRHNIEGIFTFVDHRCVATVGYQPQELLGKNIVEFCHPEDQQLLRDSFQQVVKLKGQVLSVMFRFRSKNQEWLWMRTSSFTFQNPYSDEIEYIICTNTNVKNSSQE
Source text: Upon illumination with red (680 nm) light, donor beads will generate short-lived singlet oxygen (^1O2). Nearby (<200 nm) acceptor beads can react with ^1O2 to emit light at shorter wavelengths (top). Compounds that disrupt the complex correspondingly eliminate this signal (bottom). Compounds that non-specifically interfere with the AlphaScreen assay can be identified with a counterscreen in which the ARNT PAS-B* domain was simultaneously tagged with both the GST and FLAG tags. […] At these concentrations, protein binding to the acceptor beads has become saturated and free ARNT PAS-B* competes with the coated acceptor beads for the donor beads bound to HIF-2α PAS-B*. […] Assays were performed in triplicate and the error bars represent±SD.

T1 sequence (Q16665 whole entry): as the sequence (Q16665 whole entry) above
T1 sequence (P27540 2-789 partner limits assumed): as the sequence (P27540 2-789 partner limits assumed) above

## O=[N+]([O-])c1c(Nc2cc(F)cc(Cl)c2)ccc2nonc12 [Compound 1, N-(3-chloro-5-fluorophenyl)-4-nitrobenzo[c][1,2,5]oxadiazol-5-amine]
HIF-1α
  HIF-1α DNA-binding activity (ChIP): unaffected
HIF-2α or HIF-1α mRNA
  HIF-1α and -2α mRNA levels: no effect
[1]
  pIC50: 7.00
[1]; triplicate
  Effect on HIF-2α/ARNT PAS-B* heterodimerization in AlphaScreen: blocks heterodimer assembly
EPO
  Hypoxic induction of EPO mRNA: antagonized
786-0 cells
  Toxicity to cultured cells (ATP levels as cell viability): No overt toxicity; also recorded: not overtly toxic
[2]
  Heterodimerization of full length HIF-2 transcription factor (co-IP): disrupts heterodimerization
PGK1
  Expression of PGK1: no effect
HIF-1 heterodimerization
  Effect on HIF-1 heterodimerization by Co-IP: little effect
VEGF [3]
  Expression of HIF-2 target gene (VEGF): reduced in a dose-dependent manner; also recorded: antagonized
HIF-2α [4]
  HIF-2α DNA-binding activity (ChIP): substantially decreased; also recorded: selectively disrupts
HIF-1α PAS-B
  ITC protein-ligand interaction, HIF-1α PAS-B: effectively does not bind; also recorded: does not show detectable protein-ligand interaction
  pKd: < 5.30
VEGF [5]
  VEGF protein secretion: reduce VEGF protein secretion in a dose-dependent manner
HIF-2α [6]
  Effect on HIF-2α expression (mRNA, protein): does not alter; also recorded: no effect
GST-ARNT-PAS-B*-FLAG
  Effect on AlphaScreen signal of control reaction: No effect

— US9757379B2, “Inhibition of HIF-2α heterodimerization with HIF1β (ARNT)” (The Board of Regents of the University of Texas System, priority 2012, dated 2017)
